Data set [1] has as its target T1, hA2A AR (Homo sapiens, UniProt P29274). The data set can be described thus: Competition binding of [3H]ZM241385 to hA2A AR in CHO cell membranes.
Procedure: (§1) For membrane preparation, the cells were washed with phosphate-buffered saline and scraped off T75 flasks in an ice-cold hypotonic buffer (5 mMTris-HCl, 1 mM EDTA, pH 7.4). The cell suspensions were homogenized with a Polytron, centrifuged for 30 min at 40,000× g at 4 °C and the resulting membrane pellets were used for competition binding experiments [44].
(§2) Non-specific binding was defined as binding in the presence of 1 μM DPCPX and was always <10% of the total binding [44]. […] Non-specific binding was defined as binding in the presence of 1 μM ABMECA and was always < 10% of the total binding [46]. Bound and free radioactivity were separated by filtering the assay mixture through Whatman GF/B glass fiber filters using a Brandel cell harvester (Brandel Instruments, Unterföhring, Germany).
(§3) The protein concentration was determined according to a Bio-Rad method with bovine albumin as a standard reference. […] Ki and IC50 values were calculated by the non-linear regression analysis using the equation for a sigmoid concentration-response curve (Graph-PAD Prism, San Diego, CA, USA).
A further data set has as its target T2, hA2B AR (Homo sapiens, UniProt P29275).
T2 construct: expressed in transfected cells; host or cells: CHO cells
T2 sequence (P29275 1-332): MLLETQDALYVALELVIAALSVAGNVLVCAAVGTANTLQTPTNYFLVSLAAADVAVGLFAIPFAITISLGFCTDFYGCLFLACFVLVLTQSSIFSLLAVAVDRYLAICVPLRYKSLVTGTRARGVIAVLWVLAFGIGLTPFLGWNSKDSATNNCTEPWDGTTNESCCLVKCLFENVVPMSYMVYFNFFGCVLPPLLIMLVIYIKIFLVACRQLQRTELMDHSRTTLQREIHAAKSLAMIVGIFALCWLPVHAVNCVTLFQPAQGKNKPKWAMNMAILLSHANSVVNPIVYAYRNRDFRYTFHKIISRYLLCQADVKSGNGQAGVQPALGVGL
Kind of data set: Inhibition of NECA stimulated adenylyl cyclase activity (cAMP assay) in CHO cells expressing hA2B receptor. Type of data set: cell-based. To be noted: for inhibition at 10 µM: CHO, at 10 μM of tested compound, cAMP assay, read-out: hA2BAR percentage of inhibition (I%); for IC50: NECA stimulated cAMP, hA2B CHO cells, read-out: hA2BAR IC50 (potency in cAMP assay). The text has this:
At the end of the experiments, plates were read with the Perkin Elmer EnSight Multimode Plate Reader.

A further data set deals with T3, hA1 AR (Homo sapiens, UniProt P30542).
T3 sequence (P30542 1-326): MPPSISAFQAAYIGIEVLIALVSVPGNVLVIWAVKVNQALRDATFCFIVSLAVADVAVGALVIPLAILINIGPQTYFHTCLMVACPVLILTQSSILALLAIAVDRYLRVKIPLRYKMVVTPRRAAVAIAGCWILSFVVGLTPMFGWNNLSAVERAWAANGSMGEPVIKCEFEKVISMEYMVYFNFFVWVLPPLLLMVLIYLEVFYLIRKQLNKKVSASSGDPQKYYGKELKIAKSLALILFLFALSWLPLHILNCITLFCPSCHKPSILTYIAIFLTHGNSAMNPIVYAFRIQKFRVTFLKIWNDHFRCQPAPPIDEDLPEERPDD
The data set can be described thus: Competition binding of [3H]DPCPX to hA1 AR in CHO cell membranes. The following applies: for inhibition at 10 µM: read-out: hA1AR percentage of inhibition (I%).

In a further data set the target is T4, hA3 AR (Homo sapiens, UniProt P0DMS8).
T4 sequence (P0DMS8 1-318): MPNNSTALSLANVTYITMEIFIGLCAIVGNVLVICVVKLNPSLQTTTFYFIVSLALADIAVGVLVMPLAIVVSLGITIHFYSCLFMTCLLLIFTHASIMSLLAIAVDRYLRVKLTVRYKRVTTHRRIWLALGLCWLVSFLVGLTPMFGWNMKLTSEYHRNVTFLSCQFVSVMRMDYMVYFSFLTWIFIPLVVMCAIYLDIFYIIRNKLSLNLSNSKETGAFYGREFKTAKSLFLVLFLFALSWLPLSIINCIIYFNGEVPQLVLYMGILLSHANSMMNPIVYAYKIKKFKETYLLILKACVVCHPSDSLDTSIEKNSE
Kind of data set: Competition binding of [125I]AB-MECA to hA3 AR in CHO cell membranes. The following applies: for inhibition at 10 µM: read-out: hA3AR percentage of inhibition (I%).

For data set [2], the target named is T1, hA2A AR. Kind of data set: Cyclic AMP assay in CHO cells expressing hA2A AR (modulation of basal cAMP). The following applies: for Pharmacological Behavior / Intrinsic Activity: cyclic AMP assay, hA2A CHO cells; for Intrinsic Activity: mean ± SEM.
Procedure: CHO cells transfected with hAR subtypes were washed with phosphate-buffered saline, detached with trypsin, and centrifuged for 10 min at 200× g. […] At the end of the experiments, plates were read with the Perkin Elmer EnSight Multimode Plate Reader.
Ki and IC50 values were calculated by the non-linear regression analysis using the equation for a sigmoid concentration-response curve (Graph-PAD Prism, San Diego, CA, USA).

“And” between values parts separate entries of the source, which are not always exact repeats. Identical values can stand only once. Like-named read-outs stand apart in the source and are kept apart here.

T1 sequence (P29274 whole entry): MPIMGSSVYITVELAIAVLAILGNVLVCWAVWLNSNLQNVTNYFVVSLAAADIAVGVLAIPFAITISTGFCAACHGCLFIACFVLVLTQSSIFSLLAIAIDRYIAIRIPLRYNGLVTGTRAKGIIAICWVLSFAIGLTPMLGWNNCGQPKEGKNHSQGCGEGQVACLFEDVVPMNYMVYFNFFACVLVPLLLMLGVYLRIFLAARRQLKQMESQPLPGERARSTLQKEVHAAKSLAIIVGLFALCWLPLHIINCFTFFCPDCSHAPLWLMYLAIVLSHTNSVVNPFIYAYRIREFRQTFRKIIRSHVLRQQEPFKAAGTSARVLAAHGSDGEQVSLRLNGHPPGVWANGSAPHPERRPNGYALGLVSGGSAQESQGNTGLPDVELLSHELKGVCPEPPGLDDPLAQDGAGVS
Procedure for hA1 AR: as §1, §2, §3
Procedure for hA3 AR: as §1, §2, §3

As for `CN(C)CCN1CCN(c2nc(N)c3nc(-c4ccco4)sc3n2)CC1` [compound 7, 5-(4-(2-(Dimethylamino)ethyl)piperazin-1-yl)-2-(furan-2-yl)thiazolo[5,4-d]pyrimidin-7-amine], the melting point is 183 to 186 °C. The same molecule yielded a Ki on hA2A AR [1] of 29 ± 3 nM. Also, on hA2B AR, the inhibition at 10 µM is 23% and the IC50 is greater than 10000 nM. For the same molecule, affinity at hA1 AR was put at a Ki of 345 ± 28 nM. Besides, at hA3 AR, the Ki is greater than 10000 nM and the inhibition at 10 µM is 34%.
As for `CCOC(=O)c1ccc(N2CCN(CCNc3nc(N)c4nc(-c5ccco5)sc4n3)CC2)cc1` [compound 16, Ethyl 4-(4-(2-((7-amino-2-(furan-2-yl)thiazolo[5,4-d]pyrimidin-5-yl)amino)ethyl)piperazin-1-yl) benzoate], the figures for the Ki on hA2A AR [1], on hA1 AR and at hA3 AR were 264 ± 24 nM, greater than 10000 nM and greater than 10000 nM, respectively. The inhibition at 10 µM worked out at 26% at hA2B AR, 31% on hA1 AR and 34% on hA3 AR. Also, the IC50 on hA2B AR was greater than 10000 nM.
Molecule `Nc1nc(N2CCN(C(=O)c3ccco3)CC2)nc2sc(-c3ccco3)nc12` [compound 6, (4-(7-Amino-2-(furan-2-yl)thiazolo[5,4-d]pyrimidin-5-yl)piperazin-1-yl)(furan-2-yl)methanone] yielded a melting point of 227 to 229 °C. On hA2A AR [1], this molecule gave a Ki of 137 ± 11 nM. Also, on hA2B AR, the inhibition at 10 µM is 10% and the IC50 is greater than 10000 nM. On hA1 AR, this molecule yielded a Ki of 2770 ± 249 nM. On hA3 AR, this molecule had a Ki of 816 ± 74 nM.
As for `Nc1nc(N2CCN(c3ccccc3)CC2)nc2sc(-c3ccco3)nc12` [compound 2, 2-(Furan-2-yl)-5-(4-phenylpiperazin-1-yl)thiazolo[5,4-d]pyrimidin-7-amine], at hA2B AR, the inhibition at 10 µM turned out to be 15% and the IC50 was greater than 10000 nM. Besides, the affinity at hA1 AR, expressed as Ki, was 296 ± 22 nM. For the same molecule, on hA3 AR, the Ki is greater than 10000 nM and the inhibition at 10 µM worked out at 18%.
The molecule `Nc1nc(NCCN2CCN(C(=O)c3ccco3)CC2)nc2sc(-c3ccco3)nc12` [compound 15, (4-(2-((7-Amino-2-(furan-2-yl)thiazolo[5,4-d]pyrimidin-5-yl)amino)ethyl)piperazin-1-yl)(furan-2-yl)methanone] came in with a Ki at hA2A AR [1] of 10.8 ± 1 nM. In addition, at hA2A AR [2], the midpoint of inhibition, the IC50, lay at 9.42 ± 0.87 nM; the “Pharmacological Behavior” value is given as “Inverse agonist”; the “Intrinsic Activity” value is −67 ± 5. Besides, on hA2B AR, the inhibition at 10 µM was 16% and the IC50 was greater than 10000 nM. Further, the Ki on hA1 AR worked out at 436 ± 36 nM. Besides, on hA3 AR, the Ki was greater than 10000 nM and the inhibition at 10 µM came to 23%.
Turning to `COCCOc1ccc(N2CCN(c3nc(N)c4nc(-c5ccco5)sc4n3)CC2)cc1` [compound 5, 2-(Furan-2-yl)-5-(4-(4-(2-methoxyethoxy)phenyl)piperazin-1-yl)thiazolo[5,4-d]pyrimidin-7-amine], the Ki at hA2A AR [1] turned out to be 326 ± 27 nM; at hA1 AR, 2350 ± 213 nM; on hA3 AR, 127 ± 15 nM. On hA2B AR, the inhibition at 10 µM amounted to 7%. For the same molecule, the IC50 on hA2B AR was greater than 10000 nM.
Turning to `Nc1nc(NCCN2CCN(CCc3ccccc3)CC2)nc2sc(-c3ccco3)nc12` [compound 13, 2-(Furan-2-yl)-N^5-(2-(4-phenethylpiperazin-1-yl)ethyl)thiazolo[5,4-d]pyrimidine-5,7-diamine], the results for the Ki at hA2A AR [1], on hA1 AR and on hA3 AR were 37 ± 3 nM, 522 ± 47 nM and greater than 10000 nM, respectively. For the same molecule, the inhibition at 10 µM was determined as 29% on hA2B AR and 33% on hA3 AR. The IC50 at hA2B AR was greater than 10000 nM.
As to `Nc1nc(NCCN2CCN(c3ccccc3)CC2)nc2sc(-c3ccco3)nc12` [compound 11, 2-(Furan-2-yl)-N^5-(2-(4-phenylpiperazin-1-yl)ethyl)thiazolo[5,4-d]pyrimidine-5,7-diamine], the Ki at hA2A AR [1] (read-out: hA2AAR Ki, displacement of [3H]ZM241385, CHO cells, mean ± SEM, n = 3–6) is 8.6 nM and 8.62 nM. On hA2A AR [2], the IC50 came to 7.42 ± 0.68 nM, the “Pharmacological Behavior” value is reported as “Inverse agonist” and the “Intrinsic Activity” value was −52 ± 4. In addition, on hA2B AR, the inhibition at 10 µM worked out at 13% and the IC50 is greater than 10000 nM. Also, the Ki at hA1 AR was 102 ± 9 nM. On hA1 AR (displacement of [3H]DPCPX, CHO cells, mean ± SEM, n = 3–6), the “hA1AR Ki” value is recorded as “good affinities”. In addition, on hA3 AR, the Ki is greater than 10000 nM and the inhibition at 10 µM stood at 15%.
As to `Nc1nc(NCC2CCN(CCc3ccccc3)CC2)nc2sc(-c3ccco3)nc12` [compound 21, 2-(Furan-2-yl)-N^5-((1-phenethylpiperidin-4-yl)methyl)thiazolo[5,4-d]pyrimidine-5,7-diamine], the inhibitory constant (Ki) was 483 ± 34 nM on hA2A AR [1], 247 ± 18 nM at hA1 AR and greater than 10000 nM on hA3 AR. For the same molecule, the inhibition at 10 µM at hA2B AR worked out at 27%; on hA3 AR it was 21%. In addition, the IC50 on hA2B AR was greater than 10000 nM.
For `Nc1nc(N2CCN(CCN3CCCC3)CC2)nc2sc(-c3ccco3)nc12` [compound 8, 2-(Furan-2-yl)-5-(4-(2-(pyrrolidin-1-yl)ethyl)piperazin-1-yl)thiazolo[5,4-d]pyrimidin-7-amine], the results for the inhibition at 10 µM at hA2B AR and at hA3 AR were 19% and 25%, respectively. Further, the IC50 on hA2B AR was greater than 10000 nM. Moreover, the Ki at hA1 AR is 638 ± 56 nM; on hA3 AR, greater than 10000 nM.
Regarding `Nc1nc(NCC2CCN(Cc3ccccc3)CC2)nc2sc(-c3ccco3)nc12` [compound 19, N^5-((1-Benzylpiperidin-4-yl)methyl)-2-(furan-2-yl)thiazolo[5,4-d]pyrimidine-5,7-diamine], the figures for the Ki on hA2A AR [1], at hA1 AR and on hA3 AR were 15.2 ± 1.7 nM, 365 ± 29 nM and greater than 10000 nM, respectively. Further, the IC50 is 14.8 ± 1.4 nM against hA2A AR [2] and greater than 10000 nM on hA2B AR. In addition, the “Pharmacological Behavior” value at hA2A AR [2] is on record as “Inverse agonist”. In addition, the “Intrinsic Activity” value at hA2A AR [2] is recorded as −64 ± 4. For the same molecule, the inhibition at 10 µM at hA2B AR came to 18%; on hA3 AR, 35%.
Take `COCCOc1ccc(N2CCN(CCNc3nc(N)c4nc(-c5ccco5)sc4n3)CC2)cc1` [compound 14, 2-(Furan-2-yl)-N^5-(2-(4-(4-(2-methoxyethoxy)phenyl)piperazin-1-yl)ethyl)thiazolo[5,4-d]pyrimidine-5,7-diamine]: the Ki at hA2A AR [1] came to 18.3 ± 1.9 nM; at hA1 AR, 452 ± 38 nM; on hA3 AR, 1490 ± 126 nM. The IC50 against hA2A AR [2] was 15.2 ± 1.3 nM; at hA2B AR, greater than 10000 nM. The “Pharmacological Behavior” value at hA2A AR [2] is reported as “Inverse agonist”. Also, the “Intrinsic Activity” value on hA2A AR [2] was −51 ± 5. For the same molecule, the inhibition at 10 µM on hA2B AR turned out to be 17%.
With `CCOC(=O)c1ccc(CNc2nc(N)c3nc(-c4ccco4)sc3n2)cc1` [compound 17, Ethyl 4-(((7-amino-2-(furan-2-yl)thiazolo[5,4-d]pyrimidin-5-yl)amino)methyl)benzoate], the Ki at hA2A AR [1], at hA1 AR and at hA3 AR was greater than 10000 nM throughout. Also, the inhibition at 10 µM came out at 33% on hA2A AR [1] (read-out: hA2AAR percentage of inhibition (I%)), 17% on hA2B AR, 29% at hA1 AR and 28% on hA3 AR. At hA2B AR, the IC50 was greater than 10000 nM.
On to `Nc1nc(NCCc2ccc(O)cc2)nc2nc(-c3ccco3)nn12` [ZM 241385, reference compound], for which the Ki at hA3 AR (read-out: hA3AR Ki, displacement of [125I]AB-MECA, CHO cells, mean ± SEM, n = 3–6) is 672 ± 51 nM.
`COCCN1CCC(CNc2nc(N)c3nc(-c4ccco4)sc3n2)CC1` [compound 18, 2-(Furan-2-yl)-N^5-((1-(2-methoxyethyl)piperidin-4-yl)methyl)thiazolo[5,4-d]pyrimidine-5,7-diamine]: the Ki at hA2A AR [1] is 802 ± 73 nM; on hA1 AR it was 524 ± 41 nM; at hA3 AR, greater than 10000 nM. The inhibition at 10 µM at hA2B AR was 11%; on hA3 AR it was 28%. In addition, the IC50 on hA2B AR is greater than 10000 nM.
